Measured values as given in ChEMBL document CHEMBL5608163, “Structure modification of anoplin for fighting resistant bacteria” (Eur J Med Chem, 2024).
≈ marks a conversion by molar mass, not a printed value. Bridge positions count the residues as written; N and C are the ends. Square brackets hold non-standard residues; d marks the D form. Triazole bridges read from a SMILES are 1,4-linked. Peptide text beside a SMILES is read from it. I, II: the chains in the order shown. * marks the point of attachment. Lys(N3) = [N-]=[N+]=NCCCC[C@H](N)C(=O)O; Tridecanoyl = CCCCCCCCCCCCC(=O)*; Undecanoyl = CCCCCCCCCCC(=O)*; Nonanoyl = CCCCCCCCC(=O)*; Pra = C#CC[C@H](N)C(=O)O

Assays:
[1] = Hemolytic activity in mouse RBC incubated for 1 hr; type: toxicity, cell-based, Erythrocyte; details: red blood cells
[2] = Hemolytic activity in human RBC; type: toxicity, cell-based, Erythrocyte; details: red blood cells
[3] = system: Staphylococcus aureus; test: Antimicrobial activity against Staphylococcus aureus ATCC 25923 assessed as reduction in microbial growth incubated for 18 to 20 hrs by Mueller-Hinton broth based microdilution method; type: functional; details: time 18-20 hrs
[4] = system: Enterococcus faecium; test: Antimicrobial activity against Enterococcus faecium assessed as reduction in microbial growth incubated for 18 to 20 hrs by Mueller-Hinton broth based microdilution method; type: functional; details: time 18-20 hrs
[5] = system: Bacillus subtilis; test: Antimicrobial activity against Bacillus subtilis ATCC 23857 assessed as reduction in microbial growth incubated for 18 to 20 hrs by Mueller-Hinton broth based microdilution method; type: functional; details: time 18-20 hrs
[6] = system: Escherichia coli; test: Antibacterial activity against Escherichia coli ATCC 25922 assessed as bacterial growth inhibition incubate for 18 to 20 hrs by MH broth based assay; type: functional; details: time 18-20 hrs
[7] = system: Erythrocyte; test: Hemolytic activity in human red blood cells; type: toxicity, cell-based; details: erythrocyte
[8] = system: Staphylococcus aureus; test: Antibacterial activity against Staphylococcus aureus ATCC 25923 assessed as reduction in bacterial growth measured after 18 hrs by CLSI protocol-based Mueller-Hinton broth dilution method; type: functional
[9] = system: Bacillus subtilis; test: Antibacterial activity against Bacillus subtilis ATCC 23857 assessed as reduction in bacterial growth measured after 18 hrs by CLSI protocol-based Mueller-Hinton broth dilution method; type: functional
[10] = system: Escherichia coli; test: Antibacterial activity against Escherichia coli ATCC 25922 assessed as reduction in bacterial growth measured after 18 hrs by CLSI protocol-based Mueller-Hinton broth dilution method; type: functional
[11] = system: Pseudomonas aeruginosa; test: Antibacterial activity against Pseudomonas aeruginosa ATCC 27853 assessed as reduction in bacterial growth measured after 18 hrs by CLSI protocol-based Mueller-Hinton broth dilution method; type: functional
[12] = system: Mycolicibacterium smegmatis; test: Antimycobacterial activity against Mycobacterium smegmatis mc2 155 assessed as reduction in bacterial cell growth incubated for 48 hrs by resazurin dye based assay; type: functional
[13] = system: Bacillus subtilis; test: Antibacterial activity against Bacillus subtilis assessed as reduction in bacterial growth; type: functional
[14] = system: Escherichia coli; test: Antibacterial activity against Escherichia coli DH5a assessed as reduction in bacterial growth; type: functional
[15] = system: Pseudomonas aeruginosa; test: Antibacterial activity against Pseudomonas aeruginosa PAO1 assessed as reduction in bacterial growth; type: functional
[16] = system: Zymomonas mobilis; test: Antibacterial activity against Zymomonas mobilis ATCC 10988 assessed as reduction in bacterial growth; type: functional
[17] = Hemolytic activity in human erythrocytes; type: toxicity, cell-based, Erythrocyte
[18] = system: Mycolicibacterium smegmatis; test: Antibacterial activity against Mycobacterium smegmatis mc2 155 assessed as bacterial growth inhibition; type: functional
[19] = system: Bacillus subtilis; test: Antibacterial activity against Bacillus subtilis assessed as bacterial growth inhibition; type: functional
[20] = system: Pseudomonas aeruginosa; test: Antibacterial activity against Pseudomonas aeruginosa PAO1 assessed as bacterial growth inhibition; type: functional
[21] = system: Escherichia coli; test: Antibacterial activity against Escherichia coli DH5a assessed as bacterial growth inhibition; type: functional
[22] = system: Zymomonas mobilis; test: Antibacterial activity against Zymomonas mobilis ATCC 10988 assessed as bacterial growth inhibition; type: functional
[23] = Hemolytic activity in human erythrocytes measured after 1 hrs by microplate reader analysis; type: toxicity, cell-based, Erythrocyte

Row | Compound | HC10 [7] | MIC [8] | MIC [9] | MIC [10] | MIC [11] | MIC [12] | MIC [13] | MIC [14] | MIC [15] | MIC [16] | HC50 [17] | other results
1 | CC(C)C[C@H](NC(=O)[C@H](CC(C)C)NC(=O)[C@H](CCCCN)NC(=O)[C@H](CCCCN)NC(=O)[C@H](Cc1c[nH]c2ccccc12)NC(=O)[C@H](Cc1c[nH]c2ccccc12)NC(=O)[C@H](CCCCN)NC(=O)[C@H](CC(C)C)NC(=O)[C@H](CC(C)C)NC(=O)[C@@H](N)CCCCN)C(N)=O (H-KLLKWWKKLL-NH2) |  |  |  |  |  |  |  |  |  |  |  | HC50 at 1 h [1]: > 200 µM; HC50 [2]: > 200 µM; MIC [3]: 16 µM; MIC [4]: 8 µM; MIC [5]: 8 µM; MIC [6]: 16 µM (≈ 21.7 µg/mL)
2 | CC[C@H](C)[C@H](NC(=O)[C@H](CCCNC(=N)N)NC(=O)[C@H](CCCCN)NC(=O)[C@H](CC(C)C)NC(=O)[C@H](CC(C)C)NC(=O)CNC(=O)[C@H](CCCCn1cc(C[C@H](NC(C)=O)C(=O)NCC(=O)N[C@@H](CC(C)C)C(=O)N[C@@H](CC(C)C)C(=O)N[C@@H](CCCCN)C(=O)N[C@@H](CCCNC(=N)N)C(=O)N[C@H](C(=O)N[C@@H](CCCCN)C(=O)N[C@H](C(=O)N[C@@H](CC(C)C)C(=O)N[C@@H](CC(C)C)C(N)=O)[C@@H](C)O)[C@@H](C)CC)nn1)NC(C)=O)C(=O)N[C@@H](CCCCN)C(=O)N[C@H](C(=O)N[C@@H](CC(C)C)C(=O)N[C@@H](CC(C)C)C(N)=O)[C@@H](C)O (I: Ac-[Lys(N3)]GLLKRIKTLL-NH2 / II: Ac-[Pra]GLLKRIKTLL-NH2; triazole I:1-II:1) | 150 µM | 8 µM (≈ 21.1 µg/mL) | 2 µM (≈ 5.28 µg/mL) | 4 µM (≈ 10.6 µg/mL) | 16 µM (≈ 42.2 µg/mL) |  |  |  |  |  |  | 
3 | CC[C@H](C)[C@H](NC(=O)[C@H](CCCNC(=N)N)NC(=O)[C@H](CCCCN)NC(=O)[C@H](CC(C)C)NC(=O)[C@H](CC(C)C)NC(=O)CNC(=O)[C@H](Cc1cn(CCCC[C@H](NC(C)=O)C(=O)N[C@@H](CCCNC(=N)N)C(=O)N[C@@H](CCCNC(=N)N)C(=O)N[C@@H](Cc2c[nH]c3ccccc23)C(=O)N[C@@H](Cc2c[nH]c3ccccc23)C(=O)N[C@@H](CCCNC(=N)N)C(=O)N[C@@H](Cc2ccccc2)C(N)=O)nn1)NC(C)=O)C(=O)N[C@@H](CCCCN)C(=O)N[C@H](C(=O)N[C@@H](CC(C)C)C(=O)N[C@@H](CC(C)C)C(N)=O)[C@@H](C)O (I: Ac-[Pra]GLLKRIKTLL-NH2 / II: Ac-[Lys(N3)]RRWWRF-NH2; triazole I:1-II:1) | > 150 µM | 4 µM (≈ 9.97 µg/mL) | 4 µM (≈ 9.97 µg/mL) | 8 µM (≈ 19.9 µg/mL) | 16 µM (≈ 39.9 µg/mL) |  |  |  |  |  |  | 
4 | CCCCCCCCC(=O)NCC(=O)N[C@@H](CC(C)C)C(=O)N[C@@H](CC(C)C)C(=O)N[C@@H](CCCCN)C(=O)N[C@@H](Cc1ccccc1)C(=O)N[C@H](C(=O)N[C@@H](CCCCN)C(=O)N[C@@H](CCCCN)C(=O)N[C@@H](CC(C)C)C(=O)N[C@@H](CC(C)C)C(N)=O)[C@@H](C)CC (Nonanoyl-GLLKFIKKLL-NH2) |  |  |  |  |  | 3.86 µM (≈ 5.06 µg/mL) | 8 µM (≈ 10.5 µg/mL) | 23.1 µM (≈ 30.3 µg/mL) | 3.86 µM (≈ 5.06 µg/mL) | 3.86 µM (≈ 5.06 µg/mL) | < 386 µM | 
5 | CCCCCCCCCCCCC(=O)NCC(=O)N[C@@H](CC(C)C)C(=O)N[C@@H](CC(C)C)C(=O)N[C@@H](CCCCN)C(=O)N[C@@H](Cc1ccccc1)C(=O)N[C@H](C(=O)N[C@@H](CCCCN)C(=O)N[C@@H](CCCCN)C(=O)N[C@@H](CC(C)C)C(=O)N[C@@H](CC(C)C)C(N)=O)[C@@H](C)CC (Tridecanoyl-GLLKFIKKLL-NH2) |  |  |  |  |  | 3.69 µM (≈ 5.05 µg/mL) | 8 µM (≈ 10.9 µg/mL) | 22.1 µM (≈ 30.3 µg/mL) | 3.69 µM (≈ 5.05 µg/mL) | 22.1 µM (≈ 30.3 µg/mL) | < 370 µM | 
6 | CCCCCCCCCCC(=O)NCC(=O)N[C@@H](CC(C)C)C(=O)N[C@@H](CC(C)C)C(=O)N[C@@H](CCCCN)C(=O)N[C@@H](Cc1ccccc1)C(=O)N[C@H](C(=O)N[C@@H](CCCCN)C(=O)N[C@@H](CCCCN)C(=O)N[C@@H](CC(C)C)C(=O)N[C@@H](CC(C)C)C(N)=O)[C@@H](C)CC (Undecanoyl-GLLKFIKKLL-NH2) |  |  |  |  |  | 3.77 µM (≈ 5.05 µg/mL) | 8 µM (≈ 10.7 µg/mL) | 22.6 µM (≈ 30.3 µg/mL) | 3.77 µM (≈ 5.05 µg/mL) | 3.77 µM (≈ 5.05 µg/mL) | < 377 µM | MIC [18]: > 168 µM; MIC [19]: > 170 µM; MIC [20]: 33.9 µM (≈ 45.4 µg/mL); MIC [21]: > 170 µM; MIC [22]: 12.7 µM (≈ 17 µg/mL); HC50 at 1 h [23]: 148 µM
